# Data taken from patent US20170022171A1, “2,5-DISUBSTITUTED CYCLOPENTANECARBOXYLIC ACIDS AND THEIR USE” (Bayer Pharma Aktiengesellschaft, priority 2014, published 2017).
# Target: T1, human macrophage elastase (HME/hMMP-12) (Homo sapiens, UniProt P39900)
# T1 construct: 0.5 nM HME; purchased R&D Systems 917-MP
# Test: In vitro HME inhibition test (standard or high-sensitivity)
# Format: biochemical
# Details: in some cases mean values
# Description: The potency of the compounds according to the invention with respect to HME (MMP-12) is determined in an in vitro inhibition test. The HME-mediated amidolytic cleavage of a suitable peptide substrate leads to an increase in fluorescent light therein. The signal intensity of the fluorescent light is directly proportional to the enzyme activity. The active concentration of a test compound at which half the enzyme is inhibited (50% signal intensity of the fluorescent light) is reported as the IC50 value.
# In a 384 hole microtiter plate, in a total test volume of 41 the test buffer (0.1 M HEPES pH 7.4, 0.15 M NaCl, 0.03 M CaCl2, 0.004 mM ZnCl2, 0.02 M EDTA, 0.005% Brij®), the enzyme (0.5 nM HME; from R&D Systems, 917-MP, autocatalytic activation according to the manufacturer's instructions) and the intramolecularly quenched substrate [5 μM Mca-Pro-Leu-Gly-Leu-Glu-Glu-Ala-Dap(Dnp)-NH2; Bachem, M-2670] are incubated in the absence and presence of the test substance (as a solution in DMSO) at 37° C. for two hours. The fluorescence intensity of the test mixtures is measured (excitation […], emission 393 nm). The IC50 values are ascertained by plotting the fluorescent light intensity against the active ingredient concentration.
# In this case, an enzyme concentration ten times lower is used (final concentration, for example, 0.05 nM) in order to achieve an elevated test sensitivity. The incubation period chosen for the test is correspondingly longer (for example 16 hours).
# T1 sequence (P39900 106-470): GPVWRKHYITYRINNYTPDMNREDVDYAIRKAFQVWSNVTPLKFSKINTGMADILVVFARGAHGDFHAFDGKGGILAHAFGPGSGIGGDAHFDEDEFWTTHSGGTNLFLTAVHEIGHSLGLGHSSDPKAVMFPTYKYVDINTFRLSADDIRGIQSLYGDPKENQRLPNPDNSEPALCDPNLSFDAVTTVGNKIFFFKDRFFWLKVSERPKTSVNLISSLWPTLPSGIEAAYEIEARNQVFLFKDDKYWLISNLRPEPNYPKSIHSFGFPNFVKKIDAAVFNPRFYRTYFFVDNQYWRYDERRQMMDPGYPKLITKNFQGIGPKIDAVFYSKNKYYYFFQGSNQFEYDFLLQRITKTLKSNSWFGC
row,Compound,IC50 [nM]
1,"CC(C)CCOc1ccc(C(=O)[C@@H]2CC[C@H](Cn3nnc4ccc(C(F)(F)F)cc4c3=O)[C@H]2C(=O)O)cc1 (single isomer, unassigned) [Example 62, (−)-(1RS,2RS,5SR)-2-[4-(3-Methylbutoxy)benzoyl]-5-{[4-oxo-6-(trifluoromethyl)-1,2,3-benzotriazin-3(4H)-yl]methyl}cyclopentanecarboxylic acid]",4.7
2,"CCCCCOc1ccc(C(=O)[C@@H]2CC[C@H](Cn3nnc4ccc(C(F)(F)F)cc4c3=O)[C@H]2C(=O)O)cc1 (single isomer, unassigned) [Example 64, (+)-(1RS,2SR,5RS)-2-{[4-Oxo-6-(trifluoromethyl)-1,2,3-benzotriazin-3(4H)-yl]methyl}-5-[4-(pentyloxy)benzoyl]cyclopentanecarboxylic acid]",0.068
3,"CCCCCOc1ccc(C(=O)[C@@H]2CC[C@H](Cn3nnc4ccc(C(F)(F)F)cc4c3=O)[C@H]2C(=O)O)cc1 (single isomer, unassigned) [Example 65, (−)-(1RS,2SR,5RS)-2-{[4-Oxo-6-(trifluoromethyl)-1,2,3-benzotriazin-3(4H)-yl]methyl}-5-[4-(pentyloxy)benzoyl]cyclopentanecarboxylic acid]",1.2
4,"CCCCOc1ccc(C(=O)[C@@H]2CC[C@H](Cn3nnc4ccc(C(F)(F)F)cc4c3=O)[C@H]2C(=O)O)cc1 (single isomer, unassigned) [Example 68, (−)-(1RS,2RS,5SR)-2-(4-Butoxybenzoyl)-5-{[4-oxo-6-(trifluoromethyl)-1,2,3-benzotriazin-3(4H)-yl]methyl}cyclopentanecarboxylic acid]",2.1
5,"O=C(O)[C@@H]1[C@@H](Cn2nnc3ccc(C(F)(F)F)cc3c2=O)CC[C@H]1C(=O)c1ccc(SCc2ccccc2)cc1 (single isomer, unassigned) [Example 74, (−)-(1RS,2RS,5SR)-2-[4-(Benzylsulphanyl)benzoyl]-5-{[4-oxo-6-(trifluoromethyl)-1,2,3-benzotriazin-3(4H)-yl]methyl}cyclopentanecarboxylic acid]",160
6,"O=C(O)[C@@H]1[C@@H](Cn2nnc3ccc(C(F)(F)F)cc3c2=O)CC[C@H]1C(=O)c1ccc(SCc2cccc(Cl)c2)cc1 (single isomer, unassigned) [Example 78, (−)-(1RS,2RS,5SR)-2-{4-[(3-Chlorobenzyl)sulphanyl]benzoyl}-5-{[4-oxo-6-(trifluoromethyl)-1,2,3-benzotriazin-3(4H)-yl]methyl}cyclopentanecarboxylic acid]",8.8
7,"O=C(O)[C@@H]1[C@@H](Cn2nnc3ccc(C(F)(F)F)cc3c2=O)CC[C@H]1C(=O)c1ccc(SCc2ccc(Cl)c(Cl)c2)cc1 (single isomer, unassigned) [Example 81, (−)-(1RS,2RS,5SR)-2-{4-[(3,4-Dichlorobenzyl)sulphanyl]benzoyl}-5-{[4-oxo-6-(trifluoromethyl)-1,2,3-benzotriazin-3(4H)-yl]methyl}cyclopentanecarboxylic acid]",25
8,"Cc1ccc2nnn(C[C@H]3CC[C@@H](C(=O)c4ccc(OCc5ccccc5)cc4)[C@@H]3C(=O)O)c(=O)c2c1 (single isomer, unassigned) [Example 93, (−)-(1RS,2RS,5SR)-2-[4-(Benzyloxy)benzoyl]-5-[(6-methyl-4-oxo-1,2,3-benzotriazin-3(4H)-yl)methyl]cyclopentanecarboxylic acid]",190
9,"Cc1ccc2nnn(C[C@H]3CC[C@@H](C(=O)c4ccc(OCc5ccc(F)cc5)cc4)[C@@H]3C(=O)O)c(=O)c2c1 (single isomer, unassigned) [Example 96, (−)-(1RS,2RS,5SR)-2-{4-[(4-Fluorobenzyl)oxy]benzoyl}-5-[(6-methyl-4-oxo-1,2,3-benzotriazin-3(4H)-yl)methyl]cyclopentanecarboxylic acid]",120
10,"Cc1cccc(COc2ccc(C(=O)[C@@H]3CC[C@H](Cn4nnc5ccc(C)cc5c4=O)[C@H]3C(=O)O)cc2)c1 (single isomer, unassigned) [Example 99, (−)-(1RS,2RS,5SR)-2-{4-[(3-Methylbenzyl)oxy]benzoyl}-5-[(6-methyl-4-oxo-1,2,3-benzotriazin-3(4H)-yl)methyl]cyclopentanecarboxylic acid]",210
11,"Cc1ccc2nnn(C[C@H]3CC[C@@H](C(=O)c4ccc(OCc5cccc(C(F)(F)F)c5)cc4)[C@@H]3C(=O)O)c(=O)c2c1 (single isomer, unassigned) [Example 102, (−)-(1RS,2SR,5RS)-2-[(6-Methyl-4-oxo-1,2,3-benzotriazin-3(4H)-yl)methyl]-5-(4-{[3-(trifluoromethyl)benzyl]oxy}benzoyl)cyclopentanecarboxylic acid]",8.7

# Continued, values first:
row,IC50 [nM],Compound
1,0.031,"CCCOc1ccc(C(=O)[C@@H]2CC[C@H](Cn3nnc4ccc(C(F)(F)F)cc4c3=O)[C@H]2C(=O)O)cc1 (single isomer, unassigned) [Example 70, (+)-(1RS,2SR,5RS)-2-{[4-Oxo-6-(trifluoromethyl)-1,2,3-benzotriazin-3(4H)-yl]methyl}-5-(4-propoxybenzoyl)cyclopentanecarboxylic acid]"
2,2.7,"CCCOc1ccc(C(=O)[C@@H]2CC[C@H](Cn3nnc4ccc(C(F)(F)F)cc4c3=O)[C@H]2C(=O)O)cc1 (single isomer, unassigned) [Example 71, (−)-(1RS,2SR,5RS)-2-{[4-Oxo-6-(trifluoromethyl)-1,2,3-benzotriazin-3(4H)-yl]methyl}-5-(4-propoxybenzoyl)cyclopentanecarboxylic acid]"
3,0.045,"CCCCCSc1ccc(C(=O)[C@@H]2CC[C@H](Cn3nnc4ccc(C(F)(F)F)cc4c3=O)[C@H]2C(=O)O)cc1 (single isomer, unassigned) [Example 89, (+)-(1RS,2SR,5RS)-2-{[4-Oxo-6-(trifluoromethyl)-1,2,3-benzotriazin-3(4H)-yl]methyl}-5-[4-(pentylsulphanyl)benzoyl]cyclopentanecarboxylic acid]"
4,1.1,"CCCCCSc1ccc(C(=O)[C@@H]2CC[C@H](Cn3nnc4ccc(C(F)(F)F)cc4c3=O)[C@H]2C(=O)O)cc1 (single isomer, unassigned) [Example 90, (−)-(1RS,2SR,5RS)-2-{[4-Oxo-6-(trifluoromethyl)-1,2,3-benzotriazin-3(4H)-yl]methyl}-5-[4-(pentylsulphanyl)benzoyl]cyclopentanecarboxylic acid]"
5,0.025,"Cc1ccc2nnn(C[C@H]3CC[C@@H](C(=O)c4ccc(OCc5ccc(F)cc5)cc4)[C@@H]3C(=O)O)c(=O)c2c1 (single isomer, unassigned) [Example 95, (+)-(1RS,2RS,5SR)-2-{4-[(4-Fluorobenzyl)oxy]benzoyl}-5-[(6-methyl-4-oxo-1,2,3-benzotriazin-3(4H)-yl)methyl]cyclopentanecarboxylic acid]"
6,14,"Cc1ccc2nnn(C[C@H]3CC[C@@H](C(=O)c4ccc(OCc5cccc(Cl)c5)cc4)[C@@H]3C(=O)O)c(=O)c2c1 (single isomer, unassigned) [Example 105, (−)-(1RS,2RS,5SR)-2-{4-[(3-Chlorobenzyl)oxy]benzoyl}-5-[(6-methyl-4-oxo-1,2,3-benzotriazin-3(4H)-yl)methyl]cyclopentanecarboxylic acid]"
